Measurements from paper PMC12053792 (Journal of Peptide Science, 2025).
Entries after “also recorded” stand apart in the source; their conditions may differ.

Experiments:
anti‐BAGE4 antibody = assay: Competitive ELISA, antibody recognition of BAGE4 antigen; assay type: binding, rabbit; conditions: 11 antigen concentrations between 1000 and 0.98 ng/mL, anti‐BAGE4 antibody SAB4301150 (1:250), 1 h, BAGE4-coated 384‐well plate, PBST with 0.05% Tween 20 as negative control, HRP/TMB, absorbance 450 nm
Method: Antibody–antigen complexes were then added to 384‐well plates which were precoated with 10 ng/mL of antigen. The secondary antibody, specific to the primary and conjugated to horseradish peroxidase (HRP) enzyme (produced in rabbit), was added, followed by TMB for colour development.
The antigen was diluted to 100 ng/ml in carbonate-bicarbonate
buffer, then 60 μL of the antigen dilution was pipetted into the wells of Maxisorp 384 well plate.
The plate was diluted as required (23 dilutions were prepared) and incubated at 4 °C under
foil overnight. The coating solution was removed and the plate washed three times by filling
the wells with 200 μL PBST. The solutions or washes were removed by flicking the plate over
a sink, then patting the plate dry with a paper towel.
Remaining protein-binding sites in the coated wells were blocked by adding 40 μL blocking
buffer (3% whey, 0.05% NaN3, 0.1% EDTA in PBS) to each well. The plates were covered
with foil and incubated for 2 h at rt or overnight at 4 °C. Plates were washed three times by
filling the wells with 200 μL PBS.
Incubation with primary and secondary antibody
In an Abgene 96 well plate, 8 dilutions of primary antibody (anti-BAGE4 produced in rabbit;
Sigma Aldrich SAB4301150, and anti-NY-ESO-1 produced in mouse; Sigma Aldrich N2038) […]
The optical density at 450 nm was recorded. […]

IFNγ‐secreting T‐cells = assay: In vivo immunisation, IFNγ ELISpot on splenocytes, BALB/c mice
Method: Animal experiments were carried out with ethical approval from University of Nottingham ethical review board and under a Home Office approved project license (PP2706800). Mice were dosed with 10 nmol of material in 50 μL at Days 1, 8 and 15 (n = 3). IFNϒ ELISpot assays on splenocytes were conducted on termination at Day 21. General methods for the ELISpot can be found in the Supporting Information. Preparation of media and buffers and steps performed on Days 1 and 2 post‐termination; the ELISpot assays were performed using a laminar flow cabinet and aseptic techniques to ensure the sterility of media, reagents and plates at stages before development of the ELISpot. Development of the ELISpot on Day 4 posttermination was performed on the laboratory bench.
The response was measured by count of peptide‐specific IFNγ‐secreting T‐cells by ELISpot assay. Since no studies to date have addressed T‐cell responses to BAGE4 in conventional or HLA‐A2 (HHDII/DR1) transgenic mice, conventional mice were initially selected. The H‐2d haplotype (BALB/c) strain was selected for this study as the epitope predictions for peptides that bind to MHC I and II are effective for this strain (IEDB Analysis Resource). Splenocytes from the immunised mice were tested against three predicted epitope peptides from BAGE4_18–39, which should reactivate T‐cell responses in this strain of mice when immunised with BAGE4_18–39 vaccine candidates. Lipopolysaccharide (LPS; 5 μg/mL) was used as the positive control (non‐specific stimulus of the immune system).
In Vivo Evaluation (ELISpot Assay)
Animal experiments were carried out with ethical approval from University of Nottingham ethical review boards and under a Home Office approved project license (PP2706800). HLA-HHDII/DR1 (HLA-A2.1+/+ HLADR1+/+, Pasteur Institute) transgenic mice knocked out for murine MHC-I and II and expressing chimeric HLA-A2 (HHDII) and human HLA-DR1 or Balb/c mice (Charles River) aged 6-12 weeks were used. Mice were vaccinated with 10 ηmol of each immunogen at each timepoint. Doses were delivered subcutaneously (s.c.) in 50 µl volume on days 1, 8 and 15. No anaesthesia was used for injections. Responses were screened on day 21 after euthanasia by cervical dislocation. Preparation of media and buffers and steps performed on days 1 and 2 of the ELISpot assay were performed using a laminar flow cabinet and aseptic techniques to ensure the sterility of media, reagents and plates at stages before development of the ELISpot. Development of the ELISpot on day 4 can be performed on the […]
The following tables summarise the details of the vaccine candidates and vaccination procedure including (dose time points): […]
Table S6. Summary of the injection schedule (including dose concentration and number) for the following vaccine candidates: BAGE418-39 candidate (co-administered with IFA), Cys-BAGE4-MalLNP conjugate, Pam2Cys-SK4-BAGE18-39 (2), and 2-LNP using BALB/c mice. […]
peptide mixed splenocytes
1 with standard 10 nmol SC Day 1,8 & 15 3 Day 21 ELISA on
3 Pam2Cys-SK4- 10 nmol SC Day 1, 8 & 3 Day 1 Experiment
Pam2Cys-SK4- 10 nmol Day 1, 8 & Experiment
Elispot assays were performed using murine IFNγ capture and detection reagents according to the manufacturer’s instructions (Mabtech).
Day 1: Coating of plates with capture antibody
20 μL 35% ethanol was added to each well then discarded. Each plate was then washed 4 times with 200 μL of sterile distilled water per well. […]

BALB/c mice = assay: In vivo toxicity in healthy BALB/c mice; conditions: antigen alone / components administered separately
TLR2 = conditions: Pam2Cys adjuvanting moiety; ref [19]; cited from earlier work
Text: Due to the small size of many CTAs (several under 100 amino acids in length), it is possible to produce the whole CTA synthetically via solid‐phase peptide synthesis (SPPS), coupled with native chemical ligation if required. […] An additional benefit of using palmitoyl functionality is the ability of the fatty acid chains to be incorporated into nanoparticles via sel ...

CD8+ cells = conditions: models vaccinated against NY‐ESO‐1; ref [34], [35], [36]; cited from earlier work
Text: (§1) Two CTA epitopes; NY‐ESO‐1_157‐165 and BAGE4_18–39 were employed as the antigenic components in our studies. […] BAGE4_18–39 represents the entire BAGE4 CTA minus the signal peptide; this antigen is expressed in 22% of melanomas and 30% of infiltrating bladder carcinomas; to our knowledge, it has not been evaluated in vivo. Inclusion of the ...

HLA‐A2 = conditions: ref [34], [35], [36]; cited from earlier work
Text: as §1

In the case of “BAGE4_18–39: small (22 amino acid, excluding the signal peptide) underexplored melanoma antigen (RLMKEESPVVSWWLEPEDGTAL; UniProt Q86Y28 18-39, looked up, fragment)”, the IC50 (anti‐BAGE4 antibody) is reported as 11.4 nM, the “T‐cell response, median” value (IFNγ‐secreting T‐cells; BAGE4 peptide + IFA, 10 nmol in 50 μL s.c., days 1, 8, 15, n = 3, day 21, restimulated with BAGE4_18–39, IFNγ ELISpot count) is reported as 511 and the “T‐cell response / ANOVA significance (in words)” value (IFNγ‐secreting T‐cells; BAGE4 peptide + IFA, 10 nmol s.c., days 1, 8, 15, n = 3, restimulated with BAGE4_18–32) is reported as “slightly lower responses”. The “T‐cell response / ANOVA significance (in words)” value (IFNγ‐secreting T‐cells; BAGE4 peptide + IFA, 10 nmol s.c., days 1, 8, 15, n = 3, restimulated with BAGE4_18–39) was “good responses”, the “T‐cell response / ANOVA significance (in words)” value (IFNγ‐secreting T‐cells; BAGE4 peptide + IFA, 10 nmol s.c., days 1, 8, 15, n = 3, restimulated with BAGE4_22–31) was “almost no response; also recorded: no significance” and the “Immunogenicity (in words)” value (IFNγ‐secreting T‐cells; BALB/c mice, 10 nmol s.c., days 1, 8 and 15, n = 3, IFNγ ELISpot day 21) was “immunogenic in conventional BALB/c mice”. The “Toxicity of antigen or components administered separately” value (BALB/c mice) was “does not show any toxicity”.
For `CCCCCCCCCCCCCCCC(=O)OCC(CSCC(N)C(=O)O)OC(=O)CCCCCCCCCCCCCCC` (stereo not shown), the “Potency relative to (R)‐analogue” value (TLR2) is listed as “hundredfold decrease in potency compared to the (R)‐analogue”.
For SLLMWITQC [NY‐ESO‐1_157‐165], the “Immunogenicity / T‐cell reactivation (in words)” value (CD8+ cells) is listed as “spontaneously immunogenic; also recorded: reactivate T‐cell responses (CD8+ cells)” and the “Binding to HLA‐A2 (in words)” value (HLA‐A2) is listed as “able to bind to HLA‐A2”.
